Starred links: 1 amine or outer side, 2 acyl side, 3 side chain; linkers in the order of their positions; H or OH if unused. Non-standard residues stand in square brackets, D forms with d. Residues, ends and D or L forms follow the SMILES beside them. Groups on a side chain read outwards from the residue. *: point of attachment. C18 diacid = O=C(O)CCCCCCCCCCCCCCCCC(=O)*; γGlu = O=C(O)[C@H](CCC(=O)[*:2])N[*:1]; AEEA = NCCOCCOCC(=O)O
Experiment: Effect on blood pressure, telemetry (Example 17)
Type: in vivo
Details: Sprague Dawley rats, 0.1 mg/kg SC
Protocol: The effect of the compounds on blood pressure was determined in telemetry studies in Sprague Dawley rats at a dosage of 0.1 mg/kg SC.
The rats were previously implanted with a telemetry device (DSI, Saint-Paul, USA, HD-S10, HD-S11 or HD S21) and allowed to recover for a minimum period of 2 weeks before treatment with vehicle or the different peptides. Blood pressure (BP) was recorded through a catheter inserted into the abdominal aorta. The device body was placed in the abdomen. At the end of surgery, animals were placed in individual cages until the end of the study.
Pressure signals were recorded for one hour before the treatment (basal period). Thereafter, the subcutaneous administration of the test compound or its vehicle was performed, under continuous recording of the signal over a 48-hour period. Data acquisition was performed using Hem 4.3 acquisition software (Notocord®, Le Pecq, France) connected to the telemetry device. Hemodynamic parameters were recorded during a […] before treatment and every 4-hour period following subcutaneous administration over 48 hours.
Investigated parameters (calculated from BP signal) were Heart Rate (HR) in beats per minute (bpm), Diastolic and Systolic Blood Pressure (DBP) in mmHg, and Mean Blood Pressure (MBP) in mmHg.
Data from Hem were manipulated using Microsoft Excel®. For each parameter, a basal value was determined as the average calculated over a 1-hour period during the pre-treatment sequence, and the values post treatment were calculated over 4-hour periods ([0-4], [4-8], [8-12], [12-16], [16-20], [20-24], [24-28], [32-36], [36-40], [40-44] and [44-48] hours) covering the 48-hour period following administration.
Representative data are presented in Table 15 below, in which “n” represents the number of animals for which individual values were obtained and “Duration” indicates the last time point for which a significant effect on BP was still seen: Table 15

| Structure (SMILES) | Duration (h): last time point for which a significant effect on BP was still seen [h] | Effect on Systolic Pressure % change from baseline 8 h [%] | Effect on Systolic Pressure % change from baseline 24 h [%] |
| --- | --- | --- | --- |
| CC[C@H](C)[C@H](N)C(=O)N[C@H](C(=O)N[C@@H](CC(C)C)C(=O)N[C@@H](CO)C(=O)N[C@@H](CC(C)C)C(=O)N[C@@H](CC(=O)O)C(=O)N[C@@H](C(=O)N1CCC[C@H]1C(=O)N[C@H](C(=O)N[C@@H](CCCCN)C(=O)N[C@@H](CC(C)C)C(=O)N[C@@H](CCCCNC(=O)COCCOCCNC(=O)COCCOCCNC(=O)CC[C@H](NC(=O)CCCCCCCCCCCCCCCCC(=O)O)C(=O)O)C(=O)N[C@@H](CCC(N)=O)C(=O)N[C@H](C(=O)N[C@@H](CC(C)C)C(=O)N[C@@H](CC(C)C)C(=O)N[C@@H](CCCCN)C(=O)N[C@@H](CCC(N)=O)C(=O)N[C@@H](CCC(=O)O)C(=O)N[C@@H](CCCNC(=N)N)C(=O)N[C@@H](CCC(N)=O)C(=O)N[C@@H](CCCCN)C(=O)N[C@@H](CCCCN)C(=O)N[C@@H](CCC(N)=O)C(=O)N[C@@H](CCCNC(=N)N)C(=O)N[C@@H](CCC(=O)O)C(=O)N[C@@H](CCC(N)=O)C(=O)N[C@@H](C)C(=O)N[C@@H](CCC(=O)O)C(=O)N[C@@H](CCCCN)C(=O)N[C@@H](CC(N)=O)C(=O)N[C@@H](CCCCN)C(=O)N[C@@H](CCC(N)=O)C(=O)N[C@H](C(=O)N[C@@H](CC(C)C)C(=O)N[C@@H](CCC(=O)O)C(=O)N[C@@H](CCC(N)=O)C(=O)N[C@H](C(N)=O)C(C)C)[C@@H](C)CC)[C@@H](C)CC)[C@@H](C)CC)C(C)C)C(C)C [SEQ ID NO: 137] (H-IVLSLD[dV]PIKLK([AEEA-AEEA-γGlu-C18 diacid])QILLKQERQKKQREQAEKNKQILEQV-NH2) | 28 | −15.9 | −6.5 |
| CC[C@H](C)[C@H](N)C(=O)N[C@H](C(=O)N[C@@H](CC(C)C)C(=O)N[C@@H](CO)C(=O)N[C@@H](CC(C)C)C(=O)N[C@@H](CC(=O)O)C(=O)N[C@@H](C(=O)N1CCC[C@H]1C(=O)N[C@H](C(=O)N[C@@H](CCCCN)C(=O)N[C@@H](CC(C)C)C(=O)N[C@@H](CCCCNC(=O)COCCOCCNC(=O)COCCOCCNC(=O)CC[C@H](NC(=O)CCCCCCCCCCCCCCCCC(=O)O)C(=O)O)C(=O)N[C@@H](CCC(N)=O)C(=O)N[C@H](C(=O)N[C@@H](CC(C)C)C(=O)N[C@@H](CC(C)C)C(=O)N[C@@H](CCCCN)C(=O)N[C@@H](CCC(N)=O)C(=O)N[C@@H](CCC(=O)O)C(=O)N[C@@H](CCCNC(=N)N)C(=O)N[C@@H](CCC(N)=O)C(=O)N[C@@H](CCCCN)C(=O)N[C@@H](CCCCN)C(=O)N[C@@H](CCC(N)=O)C(=O)N[C@@H](CCCNC(=N)N)C(=O)N[C@@H](CCC(=O)O)C(=O)N[C@@H](CCCCN)C(=O)N[C@@H](C)C(=O)N[C@@H](CCC(=O)O)C(=O)N[C@@H](CCCCN)C(=O)N[C@@H](CC(N)=O)C(=O)N[C@@H](CCCCN)C(=O)N[C@@H](CCC(N)=O)C(=O)N[C@H](C(=O)N[C@@H](CC(C)C)C(=O)N[C@@H](C)C(=O)N[C@@H](CCC(N)=O)C(=O)N[C@H](C(N)=O)C(C)C)[C@@H](C)CC)[C@@H](C)CC)[C@@H](C)CC)C(C)C)C(C)C [SEQ ID NO: 138] (H-IVLSLD[dV]PIKLK([AEEA-AEEA-γGlu-C18 diacid])QILLKQERQKKQREKAEKNKQILAQV-NH2) | 30 | −6.1 | −3.6 |

Reference: patent US12679878B2, “CRF2 receptor agonists and their use in therapy” (SANOFI, priority 2020, dated 2026)
